Reference: patent US10450549B2, “Aryloxyphenoxypropionate tolerance in turfrgass species and use of AAD1 as a selectable marker” (Dow AgroSciences, LLC, priority 2004, dated 2019)

Experiments:
[1] = tested on: creeping bentgrass cv Crenshaw callus; experiment: Callus selection conditions with quizalofop and haloxyfop: creeping bentgrass; type: cell-based, Agrostis stolonifera
Procedure: (§1) Selection conditions for creeping bentgrass cv Crenshaw and Kentucky bluegrass cv Shamrock were established using the grass-active herbicides, quizalofop and haloxyfop. Concentrations of quizalofop and haloxyfop ranged from 0 to 300 nM dissolved in defined callus maintenance media for each species. Callus tissue, derived from mature seeds of each species or cultivar, was used in the experiment. In the case of creeping bentgrass cv Crenshaw, calli maintained on CBG-3 medium were transferred to plates of CBG-3 medium containing either haloxyfop or quizalofop at 0, 50, 100, 150, 200, 250, and 300 nM final concentrations. Visual observations (growth of callus and development of necrosis) were made over a period of 1.5 months. For Kentucky bluegrass cv Shamrock and experimental line A98, calli maintained on KBG-2 were transferred to plates of KBG-2 medium containing 0, 50, 100, 150, 200, 250, and 300 nM final concentrations of the herbicides. Visual observations of callus growth and necrosis were made over a 2.5 month period. […] The calli became necrotic at lower concentrations of quizalofop relative to haloxyfop and the response was more rapid. […]

[2] = tested on: Kentucky bluegrass cv Shamrock callus; experiment: Callus selection conditions with quizalofop and haloxyfop: Kentucky bluegrass; type: cell-based
Procedure: as §1

[3] = tested on: AAD1-transformed T0 ‘Crenshaw’ creeping bentgrass events (pDAB3878, pDAB5042); experiment: Quizalofop-p-ethyl postemergence on AAD1-transformed T0 Crenshaw creeping bentgrass, visual % injury; type: in vivo, Agrostis stolonifera L. var. palustris
Procedure: After molecular confirmation was utilized to identify transgenic events, a number of transgenic events were tested for herbicide tolerance. Specific isolated transgenic events were selected and maintained vegetatively through division of the crowns and replanting the clonal pieces into fresh growth medium. Clonally propagated plants were maintained by periodic “mowing” of vegetative tissues.
Growth medium was prepared by mixing Promix® and sand in a 2 to 1 ratio. The medium was contained in plastic pots with a surface area of 84.6 square centimeters (cm^2). When required to maintain plant health, a fungicide, insecticide, and/or other chemical or physical treatment was applied to stock plants. The plants were maintained in a greenhouse with an approximate 14 hour photoperiod which was maintained at 24-27° C. during the day and 22-25° C. during the night. Nutrients (Peters Excel® 15-5-15 5-Ca 2-Mg and iron chelate) were applied in the irrigation solution as needed, and water was added on a regular basis. Supplemental lighting was provided with overhead metal halide 1000-Watt lamps when photosynthetically active radiation (PAR) dropped below 500.
(§2) Selected T0 plants were sprayed with quizalofop-p-ethyl (Assure II®, DUPONT, Wilmington, Del.) at rates ranging from 60 to 2,240 g ae/ha. […] This rate also controls susceptible monocot weed species. Measured amounts were placed individually in 25 mL glass vials and dissolved in a 4 mL volume of 1.0% (v/v) Agri-Dex® Crop Oil Concentrate (COC) from HELENA CHEMICAL (Collierville, Tenn.). Application solutions were prepared by serial dilution of the highest rate applied. One-half the volume of the highest rate stock solution (2 mL) was transferred to a clean 25 mL vial containing an equal volume of 1% COC and the diluted solution was mixed. Additional dilutions were prepared similarly by removing one-half the volume of the previous concentration (2 mL), and adding to an equal volume of 1% COC and mixing. When preparing the lowest concentration, the remaining one-half volume was discarded. All 2 mL stock solutions were further diluted by adding 10 mL aqueous mixture of 1.0% (v/v) COC, so that the final spray solutions were 12 mL in volume and contained 1.0% (v/v) COC.
(§3) Spray solutions were applied to the plant material with an overhead Mandel™ track sprayer equipped with a 8002E nozzles calibrated to deliver 187 L/ha over an application area of 0.503 square meters (m^2) at a spray height of 18 inches (46 cm) above average plant canopy height. Control plants were sprayed in the same manner with the COC blank.
(§4) The treated plants and control plants were placed in a greenhouse, and watered by sub-irrigation to prevent wash-off of the test compounds. At various times after application, the condition of the test plants as compared with that of the untreated plants was determined visually and scored on a scale of 0 to 100 percent (where 0 corresponds to no injury or growth inhibition and 100 corresponds to complete kill). Regenerated, non-transformed (NT) ‘Crenshaw’ or elite line 2905-2 creeping bentgrass plants and/or seed-derived clonally propagated plants served as quizalofop sensitive controls.

[4] = tested on: non-transformed (NT) and seed-derived (WT) creeping bentgrass; experiment: Quizalofop-p-ethyl postemergence on non-transformed / seed-derived creeping bentgrass controls; type: in vivo, Agrostis stolonifera L. var. palustris
Procedure: as §2, §3, §4

[5] = tested on: Hi-II corn grown from seed; experiment: Lethal dose of AOPP herbicides on non-transformed Hi-II corn

SMILES: C[C@@H](Oc1ccc(Oc2cnc3cc(Cl)ccc3n2)cc1)C(=O)O [quizalofop]
- concentration sufficient to kill callus within six weeks [1]: 150 nM
- concentration needed to kill all calli [2]: 200 nM
- mean injury, pDAB5042 Crenshaw events ([3]; 60, 120, 240 and 480 g ae/ha, 21 to 24 DAA): less than 10%
- mean injury, pDAB3878 Crenshaw events ([3]; 120 g ae/ha, 11 DAA): about 20%
- mean injury, pDAB3878 Crenshaw events ([3]; 120 g ae/ha, 14 DAA): about 25%
- mean injury, pDAB3878 Crenshaw events ([3]; 120 g ae/ha, 20 DAA): about 20%
- mean injury, pDAB3878 Crenshaw events ([3]; 480 g ae/ha, 11 DAA): ~30%
- mean injury, pDAB3878 Crenshaw events ([3]; 480 g ae/ha, 14 DAA): ~30%
- mean injury, pDAB3878 Crenshaw events ([3]; 480 g ae/ha, 20 DAA): about 20%
- injury of individual pDAB5042 Crenshaw events ([3]; 480 g ae/ha, 21-24 DAA, all events except 204 and 227): ≤ 20%
- injury of control, non-transgenic plants ([4]; 60 g ae/ha, 21 to 24 DAA): about 70%
- injury of control, non-transgenic plants ([4]; 120 and 480 g ae/ha, 11, 14, 20 DAA): about 80% injury to greater than 90% injury
- injury of control, non-transgenic plants ([4]; 120 g ae/ha, 21 to 24 DAA): ~80%
- injury of control, non-transgenic plants ([4]; 240 g ae/ha, 21 to 24 DAA): ~90%
- injury of control, non-transgenic plants ([4]; 480 g ae/ha, 21 to 24 DAA): ~100%
- lethal dose ([5]; Assure II + 1% COC (v/v)): 4.4 g ae/ha)
- rate that effectively kills (>95% injury) three to four leaf Hi-II corn ([5]; postemergence, commercial formulations): 4.4 g ae/ha
